Reference: PubChem BioAssay (NCI)
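A five-concentration, 48-hour dose response in 96-well plates underlies each endpoint, interpolated linearly between surrounding concentrations. Definition used: TGI = concentration required for complete inhibition of growth.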

Assays:
Assay in all cases: NCI-60 cell line screen, 48 h
UO-31 renal = system: UO-31 renal
MDA-MB-435 = system: MDA-MB-435
HS 578T breast = system: HS 578T breast
ACHN renal = system: ACHN renal
SK-MEL-2 melanoma = system: SK-MEL-2 melanoma
786-0 renal = system: 786-0 renal
DU-145 prostate = system: DU-145 prostate
UACC-257 melanoma = system: UACC-257 melanoma
IGROV1 ovarian = system: IGROV1 ovarian
HOP-62 NSCLC = system: HOP-62 NSCLC

Measured: TGI

CC(C)NC(=O)OCc1c(COC(=O)NC(C)C)c(-c2ccc[n+](COC(=O)C3CC3)c2)n2c1CCC2
82.7 µM: ACHN renal
> 100 µM: all other assays above

COC(=O)[C@H](Cc1ccccc1)NP(=O)(O)OCC1OC(n2cc(C)c(=O)[nH]c2=O)CC1N=[N+]=[N-] (stereo not given in full)
> 100 µM: all assays above

CSc1nncc2[nH]cnc12
> 100 µM: all assays above

O=C(CCc1ccccc1CO)NCCc1ccccc1
> 100 µM: all assays above

COC(=O)c1ccc(CCc2cc(O)c(Br)cc2O)cc1
25.9 µM: ACHN renal
30.9 µM: UACC-257 melanoma
> 100 µM: HS 578T breast
18.1 µM: UO-31 renal
27.5 µM: 786-0 renal | DU-145 prostate
28.5 µM: IGROV1 ovarian
22.6 µM: MDA-MB-435
39.1 µM: SK-MEL-2 melanoma
32.2 µM: HOP-62 NSCLC

COc1cc2c(cc1OC)C(Cc1ccccc1CCCl)=NCC2
> 100 µM: all assays above

COc1cc(C(=O)Nc2c3ccccc3nc3ccccc23)cc(OC)c1OC
> 80.1 µM: HOP-62 NSCLC
> 100 µM: all other assays above
